Experimental data taken from patent publication US20250313820A1, “PEPTIDES WITH MULTIVALENT EFFECTS” (In2Cure AB, priority 2021, published 2025).
Read-outs that look alike come from different tables or passages of the source. Marks after values point to notes of the source that are not given here. Where a SMILES comes first, the peptide text is derived from it. Bridges are numbered along the chain shown (N, C = ends). [ ]: non-standard residue; d: D form. S5 = C=CCCC[C@](C)(N)C(=O)O

Experiments:
erythrocytes (RBCs) = type: cell-based, human; details: for Hemolytic activity, lysed RBCs: 1 h
Description: (§1) Fresh venous blood from healthy donors was collected in lepirudine tubes (50 μg mL-1). Then 50 μL of blood were transferred to round-bottom 96-wells plate containing 150 μL of peptides previously diluted in RPMI-1640—GlutaMAX-I without phenol red (Gibco). 1:4 diluted blood was used as control. 50 μL of blood mixed with 150 μl 5% Tween-20 were used as positive control. After 1 h incubation at 37° C. and 5% CO2, the plate was centrifuged at 800 g, 150 μL of each sample were transferred to a flat-bottom 96-wells plate and the absorbance at 450 nm was measured. The percentage of hemolysis was calculated following the formula reported below: […]
To evaluate the hemolytic effect of the peptides on erythrocytes the blood was collected as reported above and centrifuged at 250 g for 10 min. Then plasma was discarded, and red blood cells were washed with 150 mM NaCl in 10 mM Tris pH 7.4 for three times. Next, the pellet was dilute 100 times with saline Tris buffer. 100 μL of this solution were added to round-bottom 96-wells plate containing 100 μL of peptides previously diluted in saline Tris buffer. After 1 h incubation at 37° C. and 5% CO2, the plate was centrifuged and the absorbance at 450 nm was measured, then the percentage of erythrocyte lysis was determined using formula reported above.
(§2) Data shown are mean values±SEM obtained from at least four independent experiments all made in triplicate. For each experiment blood from a different donor was used.

whole blood = type: cell-based, human; details: 1 h
Description: as §1, §2

CC[C@H](C)[C@H](NC(=O)[C@H](Cc1c[nH]c2ccccc12)NC(=O)[C@H](CCCCN)NC(=O)[C@H](CCCCN)NC(=O)[C@H](CC(C)C)NC(=O)[C@H](CCCNC(=N)N)NC(=O)[C@H](Cc1ccccc1)NC(=O)[C@@H](NC(=O)[C@@H](N)Cc1cnc[nH]1)C(C)C)C(=O)N[C@@H](CCC(N)=O)C(=O)N[C@@H](CCCCN)C(=O)N[C@H](C(=O)N[C@H](C(=O)N[C@@H](CC(=O)O)C(=O)N[C@@H](CCC(N)=O)C(=O)N[C@@H](Cc1ccccc1)C(=O)NCC(=O)N[C@@H](CCC(=O)O)C(=O)O)[C@@H](C)CC)C(C)C [HVF18, reference compound] (H-HVFRLKKWIQKVIDQFGE-OH)
Hemolytic activity, lysed RBCs (erythrocytes (RBCs); 50 μM): 28.5 ± 3.0 %
Hemolytic activity, lysed RBCs in whole blood (whole blood; 50 μM): <1* %

CC[C@H](C)[C@H](NC(=O)[C@H](Cc1c[nH]c2ccccc12)NC(=O)[C@H](CCCCN)NC(=O)[C@H](CCCCN)NC(=O)[C@H](CC(C)C)NC(=O)[C@H](CCCNC(=N)N)NC(=O)[C@H](Cc1ccccc1)NC(=O)[C@@H](NC(=O)[C@H](CCCCN)NC(=O)[C@H](CCCCN)NC(=O)[C@H](CCCCN)NC(=O)[C@@H](N)CCCCN)C(C)C)C(=O)N[C@@]1(C)CCCC=CCCC[C@@](C)(C(=O)N[C@@H](CCC(N)=O)C(=O)N[C@@H](Cc2ccccc2)C(=O)NCC(=O)N[C@@H](CCC(=O)O)C(=O)O)NC(=O)[C@H]([C@@H](C)CC)NC(=O)[C@H](C(C)C)NC(=O)[C@H](CCCCN)NC1=O [sKKKKVF18, KKKKVFRLKKWIX1KVIX2QFGE] (H-KKKKVFRLKKWI[S5]KVI[S5]QFGE-OH; staple 13-17)
Hemolytic activity, lysed RBCs (erythrocytes (RBCs)): 39.1 ± 5.4%
Hemolytic activity, lysed RBCs in whole blood (whole blood): <1%

CC[C@H](C)[C@H](NC(=O)[C@H](Cc1c[nH]c2ccccc12)NC(=O)[C@H](CCCCN)NC(=O)[C@H](CCCCN)NC(=O)[C@H](CC(C)C)NC(=O)[C@H](CCCNC(=N)N)NC(=O)[C@H](Cc1ccccc1)NC(=O)[C@@H](NC(=O)[C@H](CCCCN)NC(=O)[C@H](CCCCN)NC(=O)[C@@H](N)CCCCN)C(C)C)C(=O)N[C@@]1(C)CCCC=CCCC[C@@](C)(C(=O)N[C@@H](CCC(N)=O)C(=O)N[C@@H](Cc2ccccc2)C(=O)NCC(=O)N[C@@H](CCC(=O)O)C(=O)O)NC(=O)[C@H]([C@@H](C)CC)NC(=O)[C@H](C(C)C)NC(=O)[C@H](CCCCN)NC1=O [sKKKVF18, KKKVFRLKKWIX1KVIX2QFGE] (H-KKKVFRLKKWI[S5]KVI[S5]QFGE-OH; staple 12-16)
Hemolytic activity, lysed RBCs (erythrocytes (RBCs)): 47.1 ± 8.1%
Hemolytic activity, lysed RBCs in whole blood (whole blood): <1%

CC[C@H](C)[C@H](NC(=O)[C@H](Cc1c[nH]c2ccccc12)NC(=O)[C@H](CCCCN)NC(=O)[C@H](CCCCN)NC(=O)[C@H](CC(C)C)NC(=O)[C@H](CCCNC(=N)N)NC(=O)[C@H](Cc1ccccc1)NC(=O)[C@@H](NC(=O)[C@H](CCCCN)NC(=O)[C@@H](N)CCCCN)C(C)C)C(=O)N[C@@]1(C)CCCC=CCCC[C@@](C)(C(=O)N[C@@H](CCC(N)=O)C(=O)N[C@@H](Cc2ccccc2)C(=O)NCC(=O)N[C@@H](CCC(=O)O)C(=O)O)NC(=O)[C@H]([C@@H](C)CC)NC(=O)[C@H](C(C)C)NC(=O)[C@H](CCCCN)NC1=O [sKKVF18, KKVFRLKKWIX1KVIX2QFGE] (H-KKVFRLKKWI[S5]KVI[S5]QFGE-OH; staple 11-15)
Hemolytic activity, lysed RBCs (erythrocytes (RBCs)): 27.8 ± 3.0%
Hemolytic activity, lysed RBCs in whole blood (whole blood): <1%

CC[C@H](C)[C@H](NC(=O)[C@H](Cc1c[nH]c2ccccc12)NC(=O)[C@H](CCCCN)NC(=O)[C@@H](N)CCCCN)C(=O)N[C@@]1(C)CCCC=CCCC[C@@](C)(C(=O)N[C@@H](CCC(N)=O)C(=O)N[C@@H](Cc2ccccc2)C(=O)NCC(=O)N[C@@H](CCC(=O)O)C(=O)O)NC(=O)[C@H]([C@@H](C)CC)NC(=O)[C@H](C(C)C)NC(=O)[C@H](CCCCN)NC1=O [sKKW13, KKWIX1KVIX2QFGE] (H-KKWI[S5]KVI[S5]QFGE-OH; staple 5-9)
hemolytic activity, RBCs or whole blood (heatmaps FIG. 4, FIG. 20a), in words (erythrocytes (RBCs)): low hemolytic activity

CC[C@H](C)[C@H](NC(=O)[C@H](Cc1c[nH]c2ccccc12)NC(=O)[C@H](CCCCN)NC(=O)[C@H](CCCCN)NC(=O)[C@H](CC(C)C)NC(=O)[C@H](CCCNC(=N)N)NC(=O)[C@H](Cc1ccccc1)NC(=O)[C@@H](NC(=O)[C@@H](N)CCCCN)C(C)C)C(=O)N[C@@]1(C)CCCC=CCCC[C@@](C)(C(=O)N[C@@H](CCC(N)=O)C(=O)N[C@@H](Cc2ccccc2)C(=O)NCC(=O)N[C@@H](CCC(=O)O)C(=O)O)NC(=O)[C@H]([C@@H](C)CC)NC(=O)[C@H](C(C)C)NC(=O)[C@H](CCCCN)NC1=O [sKVF18, KVFRLKKWIXKVIXQFGE] (H-KVFRLKKWI[S5]KVI[S5]QFGE-OH; staple 10-14)
Hemolytic activity, lysed RBCs (erythrocytes (RBCs)): 51.4 ± 4.9%
Hemolytic activity, lysed RBCs in whole blood (whole blood): <1%

CC[C@H](C)[C@H](NC(=O)[C@H](Cc1c[nH]c2ccccc12)NC(=O)[C@H](CCCCN)NC(=O)[C@H](CCCCN)NC(=O)[C@@H](N)CC(C)C)C(=O)N[C@@]1(C)CCCC=CCCC[C@@](C)(C(=O)N[C@@H](CCC(N)=O)C(=O)N[C@@H](Cc2ccccc2)C(=O)NCC(=O)N[C@@H](CCC(=O)O)C(=O)O)NC(=O)[C@H]([C@@H](C)CC)NC(=O)[C@H](C(C)C)NC(=O)[C@H](CCCCN)NC1=O [sLKK14, LKKWIX1KVIX2QFGE] (H-LKKWI[S5]KVI[S5]QFGE-OH; staple 6-10)
hemolytic activity, RBCs or whole blood (heatmaps FIG. 4, FIG. 20a), in words (erythrocytes (RBCs)): low hemolytic activity

CC[C@H](C)[C@H](NC(=O)[C@H](Cc1c[nH]c2ccccc12)NC(=O)[C@H](CCCCN)NC(=O)[C@H](CCCCN)NC(=O)[C@H](CC(C)C)NC(=O)[C@H](CCCNC(=N)N)NC(=O)[C@H](Cc1ccccc1)NC(=O)[C@@H](NC(=O)[C@H](CCCNC(=N)N)NC(=O)[C@H](CCCNC(=N)N)NC(=O)[C@H](CCCNC(=N)N)NC(=O)[C@@H](N)CCCNC(=N)N)C(C)C)C(=O)N[C@@]1(C)CCCC=CCCC[C@@](C)(C(=O)N[C@@H](CCC(N)=O)C(=O)N[C@@H](Cc2ccccc2)C(=O)NCC(=O)N[C@@H](CCC(=O)O)C(=O)O)NC(=O)[C@H]([C@@H](C)CC)NC(=O)[C@H](C(C)C)NC(=O)[C@H](CCCCN)NC1=O [sRRRRVF18, RRRRVFRLKKWIX1KVIX2QFGE] (H-RRRRVFRLKKWI[S5]KVI[S5]QFGE-OH; staple 13-17)
Hemolytic activity, lysed RBCs (erythrocytes (RBCs)): 64.9 ± 11.4%
Hemolytic activity, lysed RBCs in whole blood (whole blood): <1%

CC[C@H](C)[C@H](NC(=O)[C@H](Cc1c[nH]c2ccccc12)NC(=O)[C@H](CCCCN)NC(=O)[C@H](CCCCN)NC(=O)[C@H](CC(C)C)NC(=O)[C@H](CCCNC(=N)N)NC(=O)[C@H](Cc1ccccc1)NC(=O)[C@@H](NC(=O)[C@H](CCCNC(=N)N)NC(=O)[C@H](CCCNC(=N)N)NC(=O)[C@@H](N)CCCNC(=N)N)C(C)C)C(=O)N[C@@]1(C)CCCC=CCCC[C@@](C)(C(=O)N[C@@H](CCC(N)=O)C(=O)N[C@@H](Cc2ccccc2)C(=O)NCC(=O)N[C@@H](CCC(=O)O)C(=O)O)NC(=O)[C@H]([C@@H](C)CC)NC(=O)[C@H](C(C)C)NC(=O)[C@H](CCCCN)NC1=O [sRRRVF18, RRRVFRLKKWIX1KVIX2QFGE] (H-RRRVFRLKKWI[S5]KVI[S5]QFGE-OH; staple 12-16)
Hemolytic activity, lysed RBCs (erythrocytes (RBCs)): 61.5 ± 6.2%
Hemolytic activity, lysed RBCs in whole blood (whole blood): <1%

CC[C@H](C)[C@H](NC(=O)[C@H](Cc1c[nH]c2ccccc12)NC(=O)[C@H](CCCCN)NC(=O)[C@H](CCCCN)NC(=O)[C@H](CC(C)C)NC(=O)[C@H](CCCNC(=N)N)NC(=O)[C@H](Cc1ccccc1)NC(=O)[C@@H](NC(=O)[C@H](CCCNC(=N)N)NC(=O)[C@@H](N)CCCNC(=N)N)C(C)C)C(=O)N[C@@]1(C)CCCC=CCCC[C@@](C)(C(=O)N[C@@H](CCC(N)=O)C(=O)N[C@@H](Cc2ccccc2)C(=O)NCC(=O)N[C@@H](CCC(=O)O)C(=O)O)NC(=O)[C@H]([C@@H](C)CC)NC(=O)[C@H](C(C)C)NC(=O)[C@H](CCCCN)NC1=O [sRRVF18, RRVFRLKKWIX1KVIX2QFGE] (H-RRVFRLKKWI[S5]KVI[S5]QFGE-OH; staple 11-15)
Hemolytic activity, lysed RBCs (erythrocytes (RBCs)): 49.1 ± 4.9%
Hemolytic activity, lysed RBCs in whole blood (whole blood): <1%

CC[C@H](C)[C@H](NC(=O)[C@H](Cc1c[nH]c2ccccc12)NC(=O)[C@H](CCCCN)NC(=O)[C@H](CCCCN)NC(=O)[C@H](CC(C)C)NC(=O)[C@H](CCCNC(=N)N)NC(=O)[C@H](Cc1ccccc1)NC(=O)[C@@H](NC(=O)[C@@H](N)CCCNC(=N)N)C(C)C)C(=O)N[C@@]1(C)CCCC=CCCC[C@@](C)(C(=O)N[C@@H](CCC(N)=O)C(=O)N[C@@H](Cc2ccccc2)C(=O)NCC(=O)N[C@@H](CCC(=O)O)C(=O)O)NC(=O)[C@H]([C@@H](C)CC)NC(=O)[C@H](C(C)C)NC(=O)[C@H](CCCCN)NC1=O [sRVF18, RVFRLKKWIXKVIXQFGE] (H-RVFRLKKWI[S5]KVI[S5]QFGE-OH; staple 10-14)
Hemolytic activity, lysed RBCs (erythrocytes (RBCs)): 53.6 ± 3.8%
Hemolytic activity, lysed RBCs in whole blood (whole blood): <1%
